Laboratory results as given in patent US7501238B2, “Skin substitutes for irritancy testing” (priority 2001, dated 2009).
Read-outs that look alike come from different tables or passages of the source.

How the values were obtained:
[1] = tested on: in vitro skin equivalent cultures; details: substance added to in vitro cultures, cited from earlier work
[2] = tested on: NIKS organotypic cultures; assay: IL-1α secretion by NIKS organotypic cultures after topical irritant (ELISA); format: cell-based, human; details: 24 hr at 37° C.
Protocol: (§1) Solutions of SDS (0.1%, 0.2%, and 0.5%) were topically applied to air-exposed NIKS organotypic cultures and incubated for 24 hr at 37° C. After 24 hr, the media underneath the cultures was assayed for IL-1α protein using a Quantikine IL-1α ELISA kit (R&D Systems, Minneapolis, Minn.) and cultures were incubated with MTS reagent (Promega Corp., Madison, Wis.) to determine cell viability. Media from untreated cultures contained 25 pg/ml IL-1α, whereas the concentration of IL-1α in cultures treated with 0.1%, 0.2% or 0.5% SDS was 290, 375 and 275 pg/ml respectively.

[3] = tested on: NIKS organotypic cultures; assay: MTS cell viability of irritant-treated NIKS organotypic cultures; format: cell-based, human; details: 0.5% SDS, 24 hr
Protocol: as §1
These values correspond well with published IL-1α responses in SDS-exposed skin equivalents (Perkins et al, Toxicological Sciences, 48:218 [1999]).

skin equivalents = details: irritant-treated skin equivalents; 0.2% SDS, 0.005% calcipotriol, 0.025% trans-retinoic acid; cited from earlier work
[4] = tested on: IL-8 promoter sequences between −1472 and +19 in tracheobronchial epithelial cells; details: cited from earlier work

Molecule	Lipid Composition [1]	expression and secretion of the pro-inflammatory cytokines IL-1α and IL-8 (skin equivalents)	other results
O=C1O[C@H]([C@@H](O)CO)C(O)=C1O [Vitamin C]	Major		Lipid Composition ([1]; listed as vitamin C): improved the lipid profile
CCCCCCCCCCCCOS(=O)(=O)[O-].[Na+] [SDS]		induce expression and secretion	concentration of IL-1α in media ([2]; 0.1% SDS applied topically): 290 pg/mL; concentration of IL-1α in media ([2]; 0.2% SDS applied topically): 375 pg/mL; concentration of IL-1α in media ([2]; 0.5% SDS applied topically): 275 pg/mL; cell viability (MTS assay) [3]: decreased cell viability
CC1=C(/C=C/C(C)=C/C=C/C(C)=C/C(=O)O)C(C)(C)CCC1 [trans-retinoic acid]		induce expression and secretion	induction of reporter gene containing IL-8 promoter sequences [4]: induced
C=C1/C(=C\C=C2/CCC[C@]3(C)[C@@H]([C@H](C)/C=C/[C@@H](O)C4CC4)CC[C@@H]23)C[C@@H](O)C[C@@H]1O [calcipotriol]		induce expression and secretion	
EGF: epidermal growth factor (NSDSECPLSHDGYCLHDGVCMYIEALDKYACNCVVGYIGERCQYRDLKWWELR; Epidermal growth factor; UniProt P01133 971-1023, looked up)	High triglycerides		
Vitamin E	No effect		
